The results in this text go back to patent US20060276464A1, “Diarylsulfone sulfonamides and use thereof” (Wyeth, priority 2005, published 2006).

Experiment [1] deals with T1, SFRP-1 (Homo sapiens, UniProt Q8N474).
T1 sequence (Q8N474 32-314): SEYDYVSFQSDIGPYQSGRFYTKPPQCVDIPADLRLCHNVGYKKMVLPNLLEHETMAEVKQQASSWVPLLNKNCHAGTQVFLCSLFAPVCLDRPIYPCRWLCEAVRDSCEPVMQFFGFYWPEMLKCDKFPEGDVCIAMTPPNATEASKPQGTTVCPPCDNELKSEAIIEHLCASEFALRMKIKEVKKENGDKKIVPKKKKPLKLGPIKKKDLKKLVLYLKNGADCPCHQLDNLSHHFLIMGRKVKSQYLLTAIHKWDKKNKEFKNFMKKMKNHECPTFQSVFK
As to the kind of experiment: Fluorescence polarization binding assay (competitive displacement of a probe compound from SFRP-1).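 Further: test compound competes with a fluorescent probe held by SFRP-1, seen as a drop in probe anisotropy after incubation in darkness, with anisotropy as function of rising compound dose.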 The note with it: fluorescence anisotropy, 45 nM SFRP-1, 20 nM probe. A general note: In fluorescence polarisation assays a small probe gives low polarisation when free and higher when bound to something large.

In experiment [2] the target is T1, SFRP-1. As to the kind of experiment: Cell-based assay for in vitro measurement of SFRP-1/SARP2 antagonist activity (U2OS cells co-transfected with 16x TCF-tk-Luciferase reporter, Wnt and hSFRP-1).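 Further: U2OS cells co-transfected with a TCF-tk luciferase reporter, a Wnt vector, hSFRP-1 or empty vector and CMV-βgal, luciferase luminescence read in cell lysates alongside βgal activity.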 The note with it: U2OS. For orientation: A reporter such as luciferase makes a cellular process visible.
[3] abbreviates: read-out: Fold Induction with SFRP-1, Conc 15 μM, with SFRP-1, fold induction over SFRP-1 control, single dose.
[4] abbreviates: read-out: Fold Induction without SFRP-1, Conc 15 μM, without SFRP-1, single dose.

Molecules are shown by their SMILES. Where “and” joins values, the source holds several entries; their conditions need not be identical. Identical values can stand only once. Like-named read-outs stand apart in the source and are kept apart here.

Broadly, the IC50 is the point on the concentration scale where inhibition reaches its midpoint. A high value points to lower potency. Take `CNc1ccc(S(=O)(=O)c2ccc(C(C)C)c(S(=O)(=O)NC3CCOCC3)c2)cc1` [Example 358, 2-isopropyl-5-{[4-(methylamino)phenyl]sulfonyl}-N-(tetrahydro-2H-pyran-4-yl)benzenesulfonamide]: on SFRP-1 [1], the IC50 was 0.6 µM. Also, the fold induction at 15 µM at SFRP-1 [2] (setting [3]) stood at 2.9; at SFRP-1 [2] (setting [4]) it was 1.
`CNc1ccc(S(=O)(=O)c2ccc(C(C)C)c(S(=O)(=O)NCCC3CCOCC3)c2)cc1` [Example 359, 2-isopropyl-5-{[4-(methylamino)phenyl]sulfonyl}-N-[2-(tetrahydro-2H-pyran-4-yl)ethyl]benzenesulfonamide] registered an IC50 on SFRP-1 [1] of 0.8 µM. Further, the fold induction at 15 µM worked out at 2.7 at SFRP-1 [2] (setting [3]) and 0.9 at SFRP-1 [2] (setting [4]).
Taken in the same sequence, the figures for `Cc1ccc(S(=O)(=O)c2cccc(Cl)c2Cl)cc1S(=O)(=O)NCCCn1ccnc1` [Example 360, 5-[(2,3-dichlorophenyl)sulfonyl]-N-[3-(1H-imidazol-1-yl)propyl]-2-methylbenzenesulfonamide] were 2 µM, 1.9 and 0.9.
Taken in the same sequence, the figures for `Cc1ccc(S(=O)(=O)c2ccc(NCC3CC3)cc2)cc1S(=O)(=O)NCCCn1ccnc1` [Example 368, 5-({4-[(cyclopropylmethyl)amino]phenyl}sulfonyl)-N-[3-(1H-imidazol-1-yl)propyl]-2-methylbenzenesulfonamide] were 0.9 µM, 2.5 and 1.
On SFRP-1 [1], `Cc1ccc(S(=O)(=O)c2ccc(NCc3ccccc3)cc2)cc1S(=O)(=O)NCCCn1ccnc1` [Example 370, 5-{[4-(benzylamino)phenyl]sulfonyl}-N-[3-(1H-imidazol-1-yl)propyl]-2-methylbenzenesulfonamide] registered a half-maximal inhibitory concentration (IC50) of 0.5 µM. Also, the figures for the fold induction at 15 µM on SFRP-1 [2] (setting [3]) and on SFRP-1 [2] (setting [4]) were 1.8 and 0.8, respectively.
Taken in the same sequence, the figures for `Cc1ccc(S(=O)(=O)c2ccc(N[C@@H](C)C3CCCCC3)cc2)cc1S(=O)(=O)NCCCn1ccnc1` [Example 371, 5-[(4-{[(1S)-1-cyclohexylethyl]amino}phenyl)sulfonyl]-N-[3-(1H-imidazol-1-yl)propyl]-2-methylbenzenesulfonamide] were 7 µM, 1.4 and 0.8.
With `Cc1ccc(S(=O)(=O)c2ccc(N[C@H](C)C3CCCCC3)cc2)cc1S(=O)(=O)NCCCn1ccnc1` [Example 372, 5-[(4-{[(1R)-1-cyclohexylethyl]amino}phenyl)sulfonyl]-N-[3-(1H-imidazol-1-yl)propyl]-2-methylbenzenesulfonamide], on SFRP-1 [1], the IC50 is 2 µM and 2.1 µM. Moreover, the figures for the fold induction at 15 µM on SFRP-1 [2] (setting [3]) and on SFRP-1 [2] (setting [4]) were 2.2 and 0.9, respectively.
At SFRP-1 [1], `CCC(O)CNc1ccc(S(=O)(=O)c2ccc(C)c(S(=O)(=O)NCCCn3ccnc3)c2)cc1` (stereo not drawn) [Example 373, 5-({4-[(2-hydroxybutyl)amino]phenyl}sulfonyl)-N-[3-(1H-imidazol-1-yl)propyl]-2-methylbenzenesulfonamide] gave a 50% inhibitory concentration (IC50) of 1.1 µM. Further, the results for the fold induction at 15 µM on SFRP-1 [2] (setting [3]) and at SFRP-1 [2] (setting [4]) were 2.8 and 1, respectively.
Taken in the same sequence, the figures for `Cc1ccc(S(=O)(=O)c2ccc(Br)cc2)cc1S(=O)(=O)NCCc1ccccn1` [Example 381, 5-[(4-bromophenyl)sulfonyl]-2-methyl-N-(2-pyridin-2-ylethyl)benzenesulfonamide] were 4 µM, 2.1 and 0.8.
Taken in the same sequence, the figures for `CCc1ccc(S(=O)(=O)c2ccc(F)cc2)cc1S(=O)(=O)NC(C)C(O)c1ccccc1` (stereo not drawn) [Example 392, 2-ethyl-5-[(4-fluorophenyl)sulfonyl]-N-[(trans)-2-hydroxy-1-methyl-2-phenylethyl]benzenesulfonamide] were 4 µM, 2.8 and 1.
Taken in the same sequence, the figures for `Cc1ccc(S(=O)(=O)c2ccccc2)cc1S(=O)(=O)NC1CCC1` [Example 398, N-cyclobutyl-2-methyl-5-(phenylsulfonyl)benzenesulfonamide] were 9 µM, 2.6 and 1.2.
As for `Cc1ccc(S(=O)(=O)c2ccccc2)cc1S(=O)(=O)NC1CCCC1` [Example 399, N-cyclopentyl-2-methyl-5-(phenylsulfonyl)benzenesulfonamide], the IC50 on SFRP-1 [1] turned out to be 3 µM. For the same molecule, the fold induction at 15 µM came to 2.5 at SFRP-1 [2] (setting [3]) and 1.1 on SFRP-1 [2] (setting [4]).
Taken in the same sequence, the figures for `C/C(=N\O)c1ccc(S(=O)(=O)c2ccc(C)c(S(=O)(=O)NC3CCOCC3)c2)cc1` [Example 402, 5-({4-[(1E)-N-hydroxyethanimidoyl]phenyl}sulfonyl)-2-methyl-N-(tetrahydro-2H-pyran-4-yl)benzenesulfonamide] were 2.6 µM, 2.5 and 1.1.
Taken in the same sequence, the figures for `Cc1ccc(S(=O)(=O)c2ccccc2)cc1S(=O)(=O)NC1CCN(Cc2ccccc2)CC1` [Example 413, N-(1-benzylpiperidin-4-yl)-2-methyl-5-(phenylsulfonyl)benzenesulfonamide] were 5 µM, 2.2 and 1.4.
Taken in the same sequence, the figures for `CCc1ccc(S(=O)(=O)c2ccc(C)c(S(=O)(=O)NCCc3ccccn3)c2)cc1` [Example 418, 5-[(4-ethylphenyl)sulfonyl]-2-methyl-N-(2-pyridin-2-ylethyl)benzenesulfonamide] were 1.3 µM, 2.3 and 1.2.
In turn, `CCOc1ccccc1S(=O)(=O)c1ccc(C)c(S(=O)(=O)NCCc2ccccn2)c1` [Example 420, 5-[(2-ethoxyphenyl)sulfonyl]-2-methyl-N-(2-pyridin-2-ylethyl)benzenesulfonamide] had an IC50 at SFRP-1 [1] of 8 µM. In addition, the fold induction at 15 µM on SFRP-1 [2] (setting [3]) turned out to be 2.4; on SFRP-1 [2] (setting [4]), 1.3.
Taken in the same sequence, the figures for `COc1ccc(OC)c(S(=O)(=O)c2ccc(C)c(S(=O)(=O)NCCc3ccccn3)c2)c1` [Example 421, 5-[(2,5-dimethoxyphenyl)sulfonyl]-2-methyl-N-(2-pyridin-2-ylethyl)benzenesulfonamide] were 9 µM, 2.2 and 1.2.
Taken in the same sequence, the figures for `COc1cccc(S(=O)(=O)c2ccc(C)c(S(=O)(=O)NCCc3ccccn3)c2)c1OC` [Example 422, 5-[(2,3-dimethoxyphenyl)sulfonyl]-2-methyl-N-(2-pyridin-2-ylethyl)benzenesulfonamide] were 2.8 µM, 1.9 and 1.2.
Taken in the same sequence, the figures for `COc1ccc(S(=O)(=O)c2ccc(C)c(S(=O)(=O)NCCc3ccccn3)c2)c(OC)c1` [Example 423, 5-[(2,4-dimethoxyphenyl)sulfonyl]-2-methyl-N-(2-pyridin-2-ylethyl)benzenesulfonamide] were 10 µM, 2.4 and 1.1.
With `CCOC(=O)N1CCC(NS(=O)(=O)c2cc(S(=O)(=O)c3ccccc3)ccc2C)CC1` [Example 425, ethyl 4-({[2-methyl-5-(phenylsulfonyl)phenyl]sulfonyl}amino)piperidine-1-carboxylate], at SFRP-1 [1], the half-inhibitory concentration (IC50) was 2.8 µM. Also, the figures for the fold induction at 15 µM at SFRP-1 [2] (setting [3]) and on SFRP-1 [2] (setting [4]) were 2.5 and 1.2, respectively.
In the case of `Cc1ccc(S(=O)(=O)c2ccc3[nH]ccc3c2)cc1S(=O)(=O)NCCc1ccccn1` [Example 427, 5-(1H-indol-5-ylsulfonyl)-2-methyl-N-(2-pyridin-2-ylethyl)benzenesulfonamide], at SFRP-1 [1], the IC50 is 1.1 µM. Moreover, the fold induction at 15 µM at SFRP-1 [2] (setting [3]) amounted to 2; on SFRP-1 [2] (setting [4]) it was 0.9.
Taken in the same sequence, the figures for `CC(C)c1ccc(S(=O)(=O)c2ccc(C(C)(C)C)cc2)cc1S(=O)(=O)NCCc1ccccn1` [Example 435, 5-[(4-tert-butylphenyl)sulfonyl]-2-isopropyl-N-(2-pyridin-2-ylethyl)benzenesulfonamide] were 2.6 µM, 1.7 and 1.
`CC(C)c1ccc(S(=O)(=O)c2ccc(C(C)(C)C)cc2)cc1S(=O)(=O)NCCCn1ccnc1` [Example 436, 5-[(4-tert-butylphenyl)sulfonyl]-N-[3-(1H-imidazol-1-yl)propyl]-2-isopropylbenzenesulfonamide] registered an IC50 at SFRP-1 [1] of 1 µM. Further, the fold induction at 15 µM at SFRP-1 [2] (setting [3]) is 2.2; at SFRP-1 [2] (setting [4]) it was 1.
With `CC(C)c1ccc(S(=O)(=O)c2ccc(C(C)(C)C)cc2)cc1S(=O)(=O)NC1CCOCC1` [Example 437, 5-[(4-tert-butylphenyl)sulfonyl]-2-isopropyl-N-(tetrahydro-2H-pyran-4-yl)benzenesulfonamide], on SFRP-1 [1], the IC50 amounted to 5 µM. For the same molecule, the fold induction at 15 µM turned out to be 2.2 on SFRP-1 [2] (setting [3]) and 1 on SFRP-1 [2] (setting [4]).
Turning to `Cc1ccc(S(=O)(=O)c2ccc(C(C)(C)C)cc2)cc1S(=O)(=O)NCCCn1ccnc1` [Example 439, 5-[(4-tert-butylphenyl)sulfonyl]-N-[3-(1H-imidazol-1-yl)propyl]-2-methylbenzenesulfonamide], the IC50 on SFRP-1 [1] amounted to 2 µM. For the same molecule, the fold induction at 15 µM at SFRP-1 [2] (setting [3]) worked out at 2; at SFRP-1 [2] (setting [4]) it was 0.9.
